# According to PubChem BioAssay (NCI):
#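 Where inhibition never reached the appropriate level, the endpoint shown equals the highest concentration tested. Otherwise, values were interpolated linearly from a five-concentration, 48-hour dose response in 96-well plates. Here, GI50 denotes the concentration required for 50% inhibition of growth. At the TGI there is no net growth.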
# Columns and labels:
# Test in all cases: NCI-60 cell line screen, 48 h
# MOLT-4 leukemia = test system: MOLT-4 leukemia
# OVCAR-3 ovarian = test system: OVCAR-3 ovarian
# OVCAR-5 ovarian = test system: OVCAR-5 ovarian
# SK-MEL-28 melanoma = test system: SK-MEL-28 melanoma
# TK-10 renal = test system: TK-10 renal
# UACC-257 melanoma = test system: UACC-257 melanoma
# SK-MEL-2 melanoma = test system: SK-MEL-2 melanoma
# DU-145 prostate = test system: DU-145 prostate
# MCF7 breast = test system: MCF7 breast
# BT-549 breast = test system: BT-549 breast
Compound,TGI (MOLT-4 leukemia),TGI (OVCAR-3 ovarian),TGI (OVCAR-5 ovarian),TGI (SK-MEL-28 melanoma),TGI (TK-10 renal),TGI (UACC-257 melanoma),TGI (SK-MEL-2 melanoma),GI50 (DU-145 prostate),TGI (DU-145 prostate),GI50 (MCF7 breast),TGI (MCF7 breast),GI50 (MOLT-4 leukemia),GI50 (OVCAR-3 ovarian),GI50 (OVCAR-5 ovarian),GI50 (SK-MEL-2 melanoma),GI50 (SK-MEL-28 melanoma),GI50 (TK-10 renal),GI50 (UACC-257 melanoma),GI50 (BT-549 breast),TGI (BT-549 breast)
O=S1(=O)C[C@H](O)[C@H](O)CS1,> 100 µM,> 100 µM,> 100 µM,> 100 µM,> 100 µM,> 100 µM,–,–,–,–,–,–,–,–,–,–,–,–,–,–
COC(=O)C1=C(O)c2cc(OC)c(OC)cc2C(c2ccc(OC)c(OC)c2)C1 (configuration not stated),> 100 µM,> 100 µM,> 100 µM,> 100 µM,> 100 µM,> 100 µM,> 100 µM,–,–,–,–,–,–,–,–,–,–,–,–,–
CC(C)N(C(=O)C12C3C4C5(C#N)C3C1(C#N)C5C42I)C(C)C (configuration not stated),> 100 µM,> 100 µM,> 100 µM,> 100 µM,> 100 µM,> 100 µM,> 100 µM,–,–,–,–,–,–,–,–,–,–,–,–,–
CCOC(=O)CCCn1c(SC)nc2[nH]cc(-c3ccccc3)c2c1=O,10.1 µM,42.6 µM,97.1 µM,37.1 µM,> 100 µM,44.3 µM,45.8 µM,17.1 µM,> 100 µM,18.4 µM,76.6 µM,0.489 µM,16.8 µM,37.5 µM,21.6 µM,17.6 µM,46.1 µM,22.7 µM,–,–
CC(C)(C)CC(C)(C)c1cc2c(O)c(c1)Cc1cc(C(C)(C)CC(C)(C)C)cc(c1O)Cc1cc(C(C)(C)CC(C)(C)C)cc(c1O)Cc1cc(C(C)(C)CC(C)(C)C)cc(c1O)C2,> 100 µM,> 100 µM,> 100 µM,> 100 µM,> 100 µM,> 100 µM,> 100 µM,–,–,–,–,–,–,–,–,–,–,–,–,–
CN(C)/C=N/c1nc2c(ncn2C2OC(CO)C(O)C2O)c(=O)[nH]1 (configuration not stated),> 100 µM,> 100 µM,> 100 µM,–,> 100 µM,> 100 µM,> 100 µM,–,–,–,–,–,–,–,–,–,–,–,–,–
C=C1C(=O)O[C@@H]2C[C@@H]1CC/C(C)=C/CC/C(C)=C/CC[C@@]2(C)O,18 µM,18.7 µM,39.4 µM,49.8 µM,–,41.9 µM,12.5 µM,14 µM,30.2 µM,11.9 µM,36.2 µM,3.72 µM,5.59 µM,22.1 µM,2.69 µM,22.2 µM,–,17.5 µM,21.1 µM,40.4 µM
S=C1NC2(CCCCCC2)NN1c1ccccc1,> 100 µM,> 100 µM,> 100 µM,> 100 µM,> 100 µM,> 100 µM,–,–,> 100 µM,–,> 100 µM,–,–,–,–,–,–,–,–,> 100 µM
CC1=NNC(=O)C2CCC(=O)N12 (configuration not stated),> 100 µM,> 100 µM,–,> 100 µM,> 100 µM,> 100 µM,> 100 µM,–,–,–,–,–,–,–,–,–,–,–,–,–
N#Cc1nc(Nc2cccc3ccccc23)sc1N,> 100 µM,> 100 µM,> 100 µM,> 100 µM,76.9 µM,41.1 µM,79.2 µM,–,–,–,–,–,–,–,–,–,–,–,–,–
Cc1cc([N+](=O)[O-])ccc1Nc1cccc(Cl)c1C,33 µM,27.8 µM,28.8 µM,32.1 µM,30 µM,40.4 µM,29 µM,–,–,–,–,–,–,–,–,–,–,–,–,–
CCC[CH2][Sn]1([CH2]CCC)[O]N=C(c2ccccc2)C(c2ccccc2)[O]1 (configuration not stated),6.52 µM,2.84 µM,9.31 µM,2.64 µM,4.09 µM,4.51 µM,2.53 µM,–,–,–,–,1.81 µM,1.42 µM,2.84 µM,1.27 µM,1.36 µM,1.9 µM,2.02 µM,–,–
